Experimental data: patent publication US20050163731A1, “Skin depigmenting compositions comprising adapalene and at least one depigmenting active agent” (GALDERMA RESEARCH & DEVELOPMENT, S.N.C., priority 2002, published 2005)

Legend:
[1] = tested on: natural pigmentation of the tail of SKH HR2 mice; assay: Depigmenting activity on natural pigmentation, tail of non-irradiated SKH HR2 mice (clinical pigmentation score); type: in vivo; settings: non-irradiated SKH HR2 mouse tail, hydroquinone 3%, adapalene 0.1% in acetone, topical, 5 days per week for 8 weeks, score 0 to -4
Protocol: The depigmenting activity is measured on the natural pigmentation after application of the test product to the tail of non-irradiated animals.
The treatment is carried out for 5 days per week for 8 weeks. […] On the days for irradiation, the treatment is applied after irradiation.
The evaluation is made by different clinical observations: once per week before irradiation, the pigmentation is evaluated by virtue of a score on a scale from 0 to 4. The distribution of the scores is the following: • −0: natural pigmentation • depigmentation scale: scores −1 to −4 • −1: light depigmentation • −2: moderate depigmentation • −3: marked depigmentation • −4: total depigmentation • pigmentation scale: scores 1 to 4 • 1: light pigmentation • 2: moderate pigmentation • 3: marked pigmentation • 4: intense pigmentation

[2] = tested on: UV-induced pigmentation of the tail of SKH HR2 mice; settings: SKH HR2 mouse tail irradiated with UV-B 90 mJ/cm^2 3 times per week for 8 weeks; hydroquinone 3%, adapalene 0.1% topical; score 1 to 4
Protocol: The depigmenting activity is measured on the natural pigmentation after application of the test product to the tail of non-irradiated animals. The anti-pigmenting activity is measured by the inhibition of the induction of the UV-induced pigmentation: the test product is applied to the tail of animals irradiated with UV-B. The treatment is carried out for 5 days per week for 8 weeks. […] On the days for irradiation, the treatment is applied after irradiation. The animals are irradiated 3 times per week for 8 weeks (Monday, Wednesday, Friday) at the dose of 90 mJ/cm^2 of UV-B. The evaluation is made by different clinical observations: once per week before irradiation, the pigmentation is evaluated by virtue of a score on a scale from 0 to 4. The distribution of the scores is the following: • −0: natural pigmentation • depigmentation scale: scores −1 to −4 • −1: light depigmentation • −2: moderate depigmentation • −3: marked depigmentation • −4: total depigmentation • pigmentation scale: scores 1 to 4 • 1: light pigmentation • 2: moderate pigmentation • 3: marked pigmentation • 4: intense pigmentation

SMILES | Depigmenting activity (effect on natural pigmentation) [1] | Anti-pigmenting activity (inhibition of UV-B-induced pigmentation) [2] | Depigmenting activity (effect on natural pigmentation) ([1]; listed as adapalene)
Oc1ccc(O)cc1 [hydroquinone] | statistically significant depigmentation at the end of the study | anti-pigmenting effect at the 6th and at the 7th week (D50) which becomes less marked at the end of the study | –
COc1ccc(-c2ccc3cc(C(=O)O)ccc3c2)cc1C12CC3CC(CC(C3)C1)C2 [Adapalene, 6-[3-(1-adamantyl)-4-methoxyphenyl]-2-naphthanoic acid] | does not modify the natural pigmentation | – | no depigmenting activity
